Results: publication PMC8498988, “Scaffold Hybridization Strategy Leads to the Discovery of Dopamine D3 Receptor-Selective or Multitarget Bitopic Ligands Potentially Useful for Central Nervous System Disorders” (ACS Chemical Neuroscience, 2021)

What was measured:
[1] = target: T1, 5-HT2CR (Homo sapiens, UniProt P28335); assay: Radioligand binding assay at human 5-HT2CR ([125I]DOI, HEK cells); design: expressed in transfected cells; host or cells: HEK (HEK-h5HT2C); conditions: HEK cells expressing h5-HT2CR, read-out: Ki ± SEM, 5-HT2CR
T1 sequence (P28335 33-458): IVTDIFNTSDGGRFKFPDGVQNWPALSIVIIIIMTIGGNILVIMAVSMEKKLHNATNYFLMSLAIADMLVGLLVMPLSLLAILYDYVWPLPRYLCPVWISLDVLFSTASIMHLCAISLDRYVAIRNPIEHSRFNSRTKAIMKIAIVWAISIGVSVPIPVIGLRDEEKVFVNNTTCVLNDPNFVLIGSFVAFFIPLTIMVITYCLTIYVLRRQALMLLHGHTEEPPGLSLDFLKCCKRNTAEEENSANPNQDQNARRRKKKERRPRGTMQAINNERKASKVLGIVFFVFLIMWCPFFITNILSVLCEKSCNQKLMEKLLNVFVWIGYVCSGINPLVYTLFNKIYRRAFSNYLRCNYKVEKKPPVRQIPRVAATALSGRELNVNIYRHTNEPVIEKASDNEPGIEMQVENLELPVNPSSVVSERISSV
Method: Human embryonic kidney cells expressing human 5HT2AR (HEK-h5HT2A) or human 5HT2CR (HEK-h5HT2C) are used. The cells are grown until confluent on 15 cm plates. The medium is removed, and the cells are washed with phosphate-buffered saline (PBS), scraped into 2 mL PBS, and frozen at −20 °C until needed. Cell suspension is thawed, 10 mL assay buffer (50 mM Tris, pH 7.4 at 37 °C, with 0.1% ascorbic acid and 5 mM CaCl2) is added per plate of cells, and polytronned at setting 6 for 5 s. The homogenate is centrifuged at 15,500 rpm for 20 min. To minimize the residual 5HT concentration, the pellet is resuspended in buffer, polytronned, and centrifuged as mentioned above. The final pellet is resuspended in 2 mL buffer/plate of cells. The binding assay includes 50 μL drug, 5-HT or buffer, 50 μL cell homogenate, 50 μL [^125I]DOI (∼0.1 nM), and buffer in a final volume of 250 μL. Specific binding is defined as the difference between total binding and binding in the presence of 10 μM 5HT. The reaction is incubated for 1 h at 37 °C and terminated by filtration through Wallac A filter mats presoaked in 0.05% polyethylenimine using a Tomtec 96-well harvester. The radioactivity remaining on filters is determined using a Wallac betaplate reader.

[2] = target: T2, human 5-HT1AR (Homo sapiens, UniProt P08908); assay: 5-HT1A [35S]GTPγS binding assay (HeLa cell membranes); format: biochemical; conditions: for EC50 / % stimul., 5-HT1A [35S]GTPγS binding: agonist mode; for % stimul., 5-HT1A [35S]GTPγS binding: standard agonist serotonin; for functional behavior at 5-HT1AR: in words
T2 construct: expressed in transfected cells; host or cells: HeLa
T2 sequence (P08908 1-422): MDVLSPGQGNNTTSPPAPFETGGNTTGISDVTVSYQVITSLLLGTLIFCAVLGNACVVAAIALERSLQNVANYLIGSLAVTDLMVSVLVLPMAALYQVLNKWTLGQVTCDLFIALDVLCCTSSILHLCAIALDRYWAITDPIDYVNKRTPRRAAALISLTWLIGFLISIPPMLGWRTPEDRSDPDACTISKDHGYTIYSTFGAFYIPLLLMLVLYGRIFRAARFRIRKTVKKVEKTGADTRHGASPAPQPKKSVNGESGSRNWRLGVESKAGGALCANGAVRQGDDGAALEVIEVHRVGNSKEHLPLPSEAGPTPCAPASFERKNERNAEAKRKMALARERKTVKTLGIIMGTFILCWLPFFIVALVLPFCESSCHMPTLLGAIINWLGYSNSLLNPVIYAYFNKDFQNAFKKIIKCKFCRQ
Method: The effects of the various compounds tested on [^35S]GTPγS binding in HeLa cells expressing the recombinant human 5-HT1AR were evaluated according to the method of Stanton and Beer with minor modifications. The stimulation experiments are as follows: Cell membranes (50–70 μg of protein) were resuspended in buffer containing 20 mM HEPES, 3 mM MgSO4, and 120 mM NaCl (pH 7.4). […] The samples were transferred to ice, [^35S]GTPγS (200 pM) was added, and the samples were incubated for further 30 min at 30 °C. The preincubation with both agonist and antagonist, before initiating the [^35S]GTPγS binding, ensures that agonist and antagonist are at equilibrium. Nonspecific binding was determined in the presence of […]. Incubation was stopped by the addition of ice-cold HEPES buffer and rapid filtration on Unifilter B filters (PerkinElmer) using a Filtermate cell harvester (Packard). The filters were washed with ice-cold Hepes buffer, and the radioactivity retained on the filters was determined by a TopCount, PerkinElmer liquid scintillation counter at 90% efficiency.

| Structure (SMILES) | Ki [1] [nM] | EC50 [2] [nM] | % stimul., 5-HT1A [35S]GTPγS binding [2] [%] | functional behavior at 5-HT1AR [2] |
| --- | --- | --- | --- | --- |
| O=C(NCCCCN1CCN(c2cccc(Cl)c2Cl)CC1)C1COCC(c2ccccc2)(c2ccccc2)O1 (stereo not drawn) [compound 3, N-(4-(4-(2,3-Dichlorophenyl)piperazin-1-yl)butyl)-6,6-diphenyl-1,4-dioxane-2-carboxamide] | 642 ± 80 | 232 ± 19 | 82.7 | 5-HT1AR full agonist |
| O=C(NCCCCN1CCN(c2cccc(Cl)c2Cl)CC1)C1COC(c2ccccc2)(c2ccccc2)CO1 (stereo not drawn) [compound 6, N-(4-(4-(2,3-Dichlorophenyl)piperazin-1-yl)butyl)-5,5-diphenyl-1,4-dioxane-2-carboxamide] | 90 ± 16 | 23.9 ± 8.8 | 90.8 | efficacious 5-HT1AR and D4R agonists with high potency |
| O=C(NCCCCN1CCN(c2cccc(Cl)c2Cl)CC1)C1COc2ccccc2O1 (stereo not drawn) [compound 9, N-(4-(4-(2,3-Dichlorophenyl)piperazin-1-yl)butyl)-2,3-dihydrobenzo[b][1,4]dioxine-2-carboxamide] | 97 ± 25 | 22.7 ± 0.82 | 96.3 | efficacious 5-HT1AR and D4R agonists with high potency |
